Patent US20070071773A1, “Compositions and methods for the treatment and prophylaxis of infections caused by gram positive bacteria” (priority 2002, published 2007)

Key:
[1] = tested on: trypsin-like GAS protease; experiment: Degradation of IL-8 by JS95 supernatant (Western blot, ELISA); format: biochemical, Group A Streptococcus (GAS); conditions: for IL-8 degradation (ELISA): JS95 supernatant pretreated 30 min 37° C.: 0.3 μM aprotinin, 1 mM benzamidine, 100 μg/ml soybean trypsin inhibitor, FIG. 15A
Procedure: […] was grown in the absence and presence of SilCR (50 μg/ml). IL-8 was incubated with the indicated supernatant fractions and then subjected to 18% SDS-PAGE. The separated protein bands were electro-transferred to a nitrocellulose membrane. Anti-IL-8 antibody and a secondary antibody conjugated to horseradish peroxidase were used to detect IL-8. The number of the lane represents incubation of IL-8 with: 1, DMEM+FCS (control); 2, JS95 supernatant; 3, JS95 supernatant grown in the presence of SilCR; 4, JS95 supernatant, pretreated with pefabloc SC; 5, supernatant of JS95 grown in the absence of SilCR, then 50 μg/ml of SilCR was added to the degradation assay.
15A The column numbers represent the ELISA results after incubation of IL-8 with: 1, DMEM+FCS (control); and the supernatants of: 2, JS95; 3, JS95 grown in the presence of SilCR; 4, JS95 pretreated with aprotenin; 5, JS95 pretreated with soybean trypsin inhibitor; 6, JS95 pretreated with benzamidine. The background of the ELISA assay (0.08±0.004) was subtracted from the shown results. The data represent the mean ± SD, of three separate experiments.
(§1) A. Cell culture of JS95 strain was grown in THY to an OD600 of 0.2. To determine the effect of SilCR on chemokine proteolysis, the culture was split into two equal fractions, of which one received SilCR (25 μg/ml). Both fractions were further incubated until they reached an OD600 of 0.3. Bacteria were washed twice with sterile PBS and once with DMEM containing 10% FCS. The washed pellets were re-suspended in DMEM supplemented with FCS to their original volumes. SilCR (50 μg/ml) was added to the fraction that was grown in the presence of SilCR, and the two fractions were further incubated for 1 h at 37° C. Supernatants were collected after centrifugation. The proteolysis reaction contained: 0.08 ml of each supernatant, 100 ng of recombinant human IL-8/CXCL8 (R&D systems, Minneapolis, Minn.) or 30 ng of recombinant murine MIP-2 (R& D systems, Minneapolis, Minn.), 20 mM MOPS pH=7.2 in a final volume of 0.1 ml. The reaction was conducted for 1 h at 37° C., and stopped by boiling for 1 min.
(§2) B. For testing protease inhibitors, the supernatants were pre-incubated with the inhibitor for 30 min at 37° C., followed by the proteolysis reaction. The following concentrations of inhibitors were used: 4 mM pefabloc SC; 0.5 mM PMSF; 0.3 μM aprotinin; 1 mM benzamidine; 100 μg/ml soybean trypsin inhibitor (STI).
C. Proteolysis of chemokines was determined by ELISA and Dot-blot. IL-8 content was quantified by ELISA using the Quantikine kit for determination of human IL-8 (R&D Systems, Minneapolis, Minn.) according to the manufacturer's instructions.

[2] = tested on: trypsin-like GAS protease; experiment: Degradation of MIP-2 by JS95 supernatant (dot blot); format: biochemical, Group A Streptococcus (GAS); conditions: pretreatment of JS95 supernatant: 4 mM pefabloc SC; 0.3 μM aprotinin; 1 mM benzamidine; 100 μg/ml STI
Procedure: 15B. The dots in the control panel represent MIP-2 that was incubated in DMEM+FCS, in the absence of JS95 supernatant and spotted at the following doses: 30, 15, 7.5, 3.75 and 1.87 ng (from left to right). The dots in the lower panel were generated in the same way, except that MIP-2 was previously incubated with JS95 supernatant.
as §1, §2
Samples of 50 μl from the proteolysis reaction were diluted in PBS to a final volume of 0.5 ml and passed through a 96-wells dot-blotter onto a 0.2-μm-nitrocellulose membrane. Detection of MIP-2 was performed using anti-mouse MIP-2 polyclonal antibodies (R&D Systems Minneapolis, Minn.) followed by addition of anti-mouse IgG-HRP antibody. Dots were detected using the SuperSignal West Pico chemiluminescent detection kit (Pierce, Rockford, Ill.).

`N=C(N)c1ccccc1` [benzamidine] was tested, and the “IL-8 degradation (ELISA)” value [1] was “completely abrogated” and the MIP-2 degradation [2] was “blocked”.
With `Cl.NCCc1ccc(S(=O)(=O)F)cc1` [pefabloc SC] the “IL-8 degradation (Western blot)” value ([1]; JS95 supernatant pretreated 30 min 37° C. with 4 mM pefabloc SC, FIG. 14) was “almost completely abolished” and the MIP-2 degradation [2] was “blocked”.
With aprotinin the “IL-8 degradation (ELISA)” value [1] was “completely inhibited” and the MIP-2 degradation [2] was “blocked”.
With soybean trypsin inhibitor the “IL-8 degradation (ELISA)” value [1] was “completely abrogated” and the MIP-2 degradation [2] was “blocked”.
